Drawing on ChEMBL document CHEMBL1201862, “PubChem BioAssay data set” (2004), this text covers IC50, EC50 and AC50 for 6 compounds.

Active and inactive are the calls of the source. Unless noted, no cut-off for these calls is given here.

Experiment [1] concerns the target T1, Tyrosine-protein phosphatase non-receptor type 22 (Homo sapiens, UniProt Q9Y2R2).
T1 sequence (Q9Y2R2 whole entry): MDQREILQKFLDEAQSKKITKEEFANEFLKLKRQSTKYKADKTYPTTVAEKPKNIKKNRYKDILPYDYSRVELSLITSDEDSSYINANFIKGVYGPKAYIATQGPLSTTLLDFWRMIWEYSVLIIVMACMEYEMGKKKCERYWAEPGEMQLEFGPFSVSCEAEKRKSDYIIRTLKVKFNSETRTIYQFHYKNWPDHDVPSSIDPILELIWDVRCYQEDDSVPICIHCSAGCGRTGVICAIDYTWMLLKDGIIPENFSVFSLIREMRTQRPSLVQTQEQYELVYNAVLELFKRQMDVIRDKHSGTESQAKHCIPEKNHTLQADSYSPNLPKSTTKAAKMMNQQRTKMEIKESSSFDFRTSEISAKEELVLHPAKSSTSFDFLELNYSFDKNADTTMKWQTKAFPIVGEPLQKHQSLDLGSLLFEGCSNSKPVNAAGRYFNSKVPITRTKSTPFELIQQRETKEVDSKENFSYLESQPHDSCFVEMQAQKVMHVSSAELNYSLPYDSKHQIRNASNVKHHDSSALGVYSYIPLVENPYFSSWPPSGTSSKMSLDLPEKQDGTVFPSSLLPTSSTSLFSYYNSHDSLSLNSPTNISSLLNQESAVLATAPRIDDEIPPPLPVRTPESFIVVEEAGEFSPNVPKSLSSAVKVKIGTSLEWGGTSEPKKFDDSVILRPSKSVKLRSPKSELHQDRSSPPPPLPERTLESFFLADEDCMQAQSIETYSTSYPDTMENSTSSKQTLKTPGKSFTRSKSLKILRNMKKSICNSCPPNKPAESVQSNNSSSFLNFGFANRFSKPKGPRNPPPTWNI
Description: SAR LYP1 Fluorescent Assay using pCAP substrate for In Vitro dose response studies - Set 2. [Related pubchem assays (depositor defined):AID1779, AID1784, AID2135, AID449727]. The experiment is classed as functional.

The target in experiment [2] is Tyrosine-protein phosphatase non-receptor type 12 (Homo sapiens, UniProt Q05209). Description: SAR Selectivity Analysis of small molecule inhibitors of PEST using pCAP in a fluorescence assay. [Related pubchem assays (depositor defined):AID1779, AID1784, AID2135]. Type of experiment: functional.
Experiment [3] addresses T1, Tyrosine-protein phosphatase non-receptor type 22. The experiment is described as follows: SAR LYP1 Fluorescent Assay using OMFP substrate for In Vitro dose response studies - Set 3. [Related pubchem assays (depositor defined):AID1779, AID1784, AID2140, AID2686]. The experiment is classed as functional.
The target of experiment [4] is T2, Tyrosine-protein phosphatase non-receptor type 7 (Homo sapiens, UniProt P35236).
T2 sequence (P35236 whole entry): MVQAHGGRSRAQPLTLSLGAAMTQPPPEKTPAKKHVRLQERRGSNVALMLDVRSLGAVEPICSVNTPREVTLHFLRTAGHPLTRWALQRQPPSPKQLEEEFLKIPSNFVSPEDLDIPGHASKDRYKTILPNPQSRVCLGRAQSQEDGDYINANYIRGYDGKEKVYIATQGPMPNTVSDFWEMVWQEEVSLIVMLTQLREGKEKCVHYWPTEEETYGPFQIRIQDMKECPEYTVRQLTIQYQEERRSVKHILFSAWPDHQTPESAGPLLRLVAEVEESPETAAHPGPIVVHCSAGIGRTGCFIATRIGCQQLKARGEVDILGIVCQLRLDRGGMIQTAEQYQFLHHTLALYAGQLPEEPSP
The experiment is described as follows: HePTP (PTPN7) phosphatase inhibitor potency, SAR follow-up, biochemical, set 2 (AID 449736). Type of experiment: functional.

Experiment [5] deals with T1, Tyrosine-protein phosphatase non-receptor type 22. The experiment is described as follows: LYP (PTPN22) phosphatase inhibitor potency, SAR follow-up, biochemical, pCAP fluorogenic substrate, fluorescence, set 3 (AID 449727). The experiment is classed as functional.
Experiment [6] shares this target. The experiment is described as follows: PubChem AID 2135.
For experiment [7] the target is unchanged. The experiment is described as follows: PubChem AID 2140.
The target is the same in experiment [8]. The experiment is described as follows: SAR LYP1 Fluorescent Assay using OMFP substrate for In Vitro dose response studies - Set 2. [Related pubchem assays (depositor defined):AID1779, AID1784, AID2140, AID449726, AID488869]. The experiment is classed as functional.
For experiment [9], the target named is Sphingosine 1-phosphate receptor 5 (Homo sapiens, UniProt Q9H228). The experiment is described as follows: Late-stage fluorescence-based dose-response cell-based assay to identify agonists of the Sphingosine 1-Phosphate Receptor 4 (S1P4): Sphingosine 1-Phosphate Receptor 5 (S1P5) counterscreen assay. [Related pubchem assays (depositor defined):AID1509, AID1523, AID1563, AID1686, AID1701, AID1801, AID463107, AID463225, AID504400]. The experiment is classed as functional. In general terms: Counterscreens check selectivity or assay interference.

Experiment [10] deals with Sphingosine 1-phosphate receptor 1 (Homo sapiens, UniProt P21453). The experiment is described as follows: Late-stage fluorescence-based dose-response cell-based assay to identify agonists of the Sphingosine 1-Phosphate Receptor 4 (S1P4): Sphingosine 1-Phosphate Receptor 1 (S1P1) counterscreen assay. [Related pubchem assays (depositor defined):AID1509, AID1523, AID1563, AID1686, AID1701, AID1801, AID463107, AID463225, AID504400]. Type of experiment: functional.

Experiment [11] concerns the target Sphingosine 1-phosphate receptor 2 (Homo sapiens, UniProt O95136). Description: Late-stage fluorescence-based dose-response cell-based assay to identify agonists of the Sphingosine 1-Phosphate Receptor 4 (S1P4): Sphingosine 1-Phosphate Receptor 2 (S1P2) counterscreen assay. [Related pubchem assays (depositor defined):AID1509, AID1523, AID1563, AID1686, AID1701, AID1801, AID463107, AID463225, AID504400]. The experiment is classed as functional.

The target of experiment [12] is Sphingosine 1-phosphate receptor 3 (Homo sapiens, UniProt Q99500). Description: Late-stage fluorescence-based dose-response cell-based assay to identify agonists of the Sphingosine 1-Phosphate Receptor 4 (S1P4): Sphingosine 1-Phosphate Receptor 3 (S1P3) counterscreen assay. [Related pubchem assays (depositor defined):AID1509, AID1523, AID1563, AID1686, AID1701, AID1801, AID463107, AID463225, AID504400]. Type of experiment: functional.

Experiment [13] has as its target T3, Kappa-type opioid receptor (Homo sapiens, UniProt P41145). Description: SAR analysis of small molecule antagonists of the kappa opioid receptor via a luminescent beta-arrestin assay - Set 4. [Related pubchem assays (depositor defined):AID1777, AID1778, AID1785, AID1786, AID1966, AID2133, AID2136, AID2285]. The experiment is classed as functional.
Experiment [14] has as its target T3, Kappa-type opioid receptor. Description: SAR analysis of small molecule antagonists of the kappa opioid receptor via a luminescent beta-arrestin assay - Set 5. [Related pubchem assays (depositor defined):AID1778, AID1785]. Type of experiment: functional.
The target of experiment [15] is T4, Runt-related transcription factor 1/Core-binding factor subunit beta (Homo sapiens, UniProt Q01196+Q13951). The experiment is described as follows: Confirmation of compounds inhibiting the binding between the RUNX1 Runt domain and CBFb-SMMHC via a fluorescence resonance energy transfer (FRET) assay. [Related pubchem assays (depositor defined):AID1434, AID1438, AID1496, AID1550, AID1645]. The experiment is classed as protein assay.

For experiment [16], the target named is T4, Runt-related transcription factor 1/Core-binding factor subunit beta. The experiment is described as follows: inhibitors of RUNX1 Runt–CBFb-SMMHC binding, primary screen, biochemical, FRET, Cerulean-Runt, Venus-CBFb-SMMHC, uHTS (AID 1434).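 Note: partner is the CBFb-SMMHC leukemia fusion protein rather than wild-type CBFb.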 Type of experiment: protein assay.
Experiment [17] shares this target. The experiment is described as follows: inhibitors of RUNX1 Runt–CBFb-SMMHC binding, biochemical, TR-FRET (AID 1438). Type of experiment: protein assay.
Experiment [18] has the same target. The experiment is described as follows: Confirmation of compounds inhibiting the binding between the RUNX1 Runt domain and CBFb-SMMHC via a time resolved fluorescence resonance energy transfer (TR-FRET) assay. [Related pubchem assays (depositor defined):AID1434, AID1438, AID1496, AID1560, AID1645]. The experiment is classed as protein assay. (In TR-FRET formats the signal depends on donor and acceptor labels being close together.)

The target of experiment [19] is G-protein coupled receptor 55 (Homo sapiens, UniProt Q9Y2T6). Description: GPR55 agonists via beta-arrestin recruitment, primary screen, imaging, U2OS cells, beta-arrestin-GFP redistribution (AID 1961). The experiment is classed as functional. A general note: Activated receptors often draw arrestin, which recruitment assays turn into a signal.
The target in experiment [20] is T5, Heat shock factor protein 1 (Mus musculus, UniProt P38532).
T5 sequence (P38532 whole entry): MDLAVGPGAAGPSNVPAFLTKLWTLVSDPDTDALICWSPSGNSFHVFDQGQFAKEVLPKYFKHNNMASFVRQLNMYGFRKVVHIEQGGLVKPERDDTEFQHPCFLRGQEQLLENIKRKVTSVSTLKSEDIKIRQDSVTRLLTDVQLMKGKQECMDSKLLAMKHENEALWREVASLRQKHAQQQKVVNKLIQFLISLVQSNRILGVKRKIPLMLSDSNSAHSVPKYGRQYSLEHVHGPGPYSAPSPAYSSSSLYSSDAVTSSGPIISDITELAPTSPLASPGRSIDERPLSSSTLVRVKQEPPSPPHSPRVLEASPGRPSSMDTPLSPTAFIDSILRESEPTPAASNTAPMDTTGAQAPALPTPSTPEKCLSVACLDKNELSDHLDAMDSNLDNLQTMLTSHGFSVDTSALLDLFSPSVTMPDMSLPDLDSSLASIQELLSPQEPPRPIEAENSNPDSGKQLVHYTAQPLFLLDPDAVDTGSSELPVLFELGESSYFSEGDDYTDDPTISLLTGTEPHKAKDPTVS
Description: HSF1 potentiators in luciferase reporter cells, confirmation, cell-based, NIH3T3, luminescence, dose retest (AID 435004).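 Note: stress induced by proteasome inhibitor MG132 added 30 min after compound; luciferase reporter driven by HSF1 response element in NIH3T3 cells; actives raise luminescence as potentiators of the MG132 stress response.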 Type of experiment: functional.

For experiment [21], the target named is Heat shock protein HSP 90-alpha (Homo sapiens, UniProt P07900). Type of experiment: functional, organism-based.
A further experiment concerns the target Genome polyprotein (dengue virus type 2, UniProt P29990). Description: Dengue-2 NS5 methyltransferase inhibitors, primary screen, biochemical, confirmation dose response (AID 588689). Type of experiment: functional.
Experiment [22] addresses T6, E3 ubiquitin-protein ligase XIAP (Homo sapiens, UniProt P98170). The experiment is described as follows: SAR analysis of Antagonists of XIAP-Bir3 domain of IAP-family anti-apoptotic proteins. [Related pubchem assays (depositor defined):AID1018, AID1449, AID1513, AID1514, AID1638].
The target in experiment [23] is T6, E3 ubiquitin-protein ligase XIAP. The experiment is described as follows: SAR analysis of Antagonists of IAP-family anti-apoptotic proteins. [Related pubchem assays (depositor defined):AID1018, AID1449, AID1513, AID1514, AID1638].
For experiment [24], the target named is Peroxisome proliferator-activated receptor gamma (Homo sapiens, UniProt P37231). The experiment is described as follows: PPARg partial agonists, dose response, cell-based, luminescence, assay provider (AID 504447). Type of experiment: functional.
Peroxisome proliferator-activated receptor gamma, sequence (P37231 whole entry): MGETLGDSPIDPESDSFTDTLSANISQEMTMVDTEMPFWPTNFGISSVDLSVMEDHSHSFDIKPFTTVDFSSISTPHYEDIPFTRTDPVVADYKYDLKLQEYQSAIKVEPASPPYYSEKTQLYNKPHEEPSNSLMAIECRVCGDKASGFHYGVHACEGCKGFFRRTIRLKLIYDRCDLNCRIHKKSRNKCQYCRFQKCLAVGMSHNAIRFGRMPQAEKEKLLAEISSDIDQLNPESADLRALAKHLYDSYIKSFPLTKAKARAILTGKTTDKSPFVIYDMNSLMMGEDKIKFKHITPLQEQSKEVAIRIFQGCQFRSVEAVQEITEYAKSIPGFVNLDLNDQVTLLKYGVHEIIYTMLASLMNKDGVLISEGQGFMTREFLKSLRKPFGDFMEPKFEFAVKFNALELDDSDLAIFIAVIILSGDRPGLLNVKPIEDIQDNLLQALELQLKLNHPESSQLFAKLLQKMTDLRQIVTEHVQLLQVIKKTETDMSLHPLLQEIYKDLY

T4 sequence (Q01196 whole entry, the tested form may be a part): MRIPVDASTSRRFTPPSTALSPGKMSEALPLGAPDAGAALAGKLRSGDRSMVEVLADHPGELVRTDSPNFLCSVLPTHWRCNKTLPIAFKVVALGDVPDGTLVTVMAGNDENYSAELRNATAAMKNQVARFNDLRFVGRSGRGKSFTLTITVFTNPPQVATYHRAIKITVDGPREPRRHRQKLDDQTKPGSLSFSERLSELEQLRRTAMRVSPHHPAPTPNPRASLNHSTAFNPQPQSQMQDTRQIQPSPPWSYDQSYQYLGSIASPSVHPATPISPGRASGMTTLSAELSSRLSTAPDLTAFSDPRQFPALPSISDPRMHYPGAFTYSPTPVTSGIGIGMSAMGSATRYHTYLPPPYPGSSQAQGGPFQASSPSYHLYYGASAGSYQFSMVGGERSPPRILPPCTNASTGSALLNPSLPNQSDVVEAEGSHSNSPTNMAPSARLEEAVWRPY
T4 sequence (Q13951 whole entry, the tested form may be a part): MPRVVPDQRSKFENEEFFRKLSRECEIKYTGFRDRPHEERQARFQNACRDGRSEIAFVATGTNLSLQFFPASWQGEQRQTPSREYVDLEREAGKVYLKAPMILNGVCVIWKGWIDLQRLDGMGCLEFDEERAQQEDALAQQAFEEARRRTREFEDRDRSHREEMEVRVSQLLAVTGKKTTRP
T3 sequence (P41145 whole entry): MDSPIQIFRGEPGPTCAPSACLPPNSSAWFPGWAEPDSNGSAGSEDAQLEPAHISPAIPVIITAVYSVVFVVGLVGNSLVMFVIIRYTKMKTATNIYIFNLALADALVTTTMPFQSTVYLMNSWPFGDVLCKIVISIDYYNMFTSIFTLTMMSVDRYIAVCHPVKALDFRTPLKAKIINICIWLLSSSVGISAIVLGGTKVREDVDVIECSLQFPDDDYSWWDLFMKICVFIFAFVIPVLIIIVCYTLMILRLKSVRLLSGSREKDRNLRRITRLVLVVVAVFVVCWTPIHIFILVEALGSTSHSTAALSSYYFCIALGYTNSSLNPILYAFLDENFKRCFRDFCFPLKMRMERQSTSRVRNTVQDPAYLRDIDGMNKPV
T6 sequence (P98170 whole entry, the tested form may be a part): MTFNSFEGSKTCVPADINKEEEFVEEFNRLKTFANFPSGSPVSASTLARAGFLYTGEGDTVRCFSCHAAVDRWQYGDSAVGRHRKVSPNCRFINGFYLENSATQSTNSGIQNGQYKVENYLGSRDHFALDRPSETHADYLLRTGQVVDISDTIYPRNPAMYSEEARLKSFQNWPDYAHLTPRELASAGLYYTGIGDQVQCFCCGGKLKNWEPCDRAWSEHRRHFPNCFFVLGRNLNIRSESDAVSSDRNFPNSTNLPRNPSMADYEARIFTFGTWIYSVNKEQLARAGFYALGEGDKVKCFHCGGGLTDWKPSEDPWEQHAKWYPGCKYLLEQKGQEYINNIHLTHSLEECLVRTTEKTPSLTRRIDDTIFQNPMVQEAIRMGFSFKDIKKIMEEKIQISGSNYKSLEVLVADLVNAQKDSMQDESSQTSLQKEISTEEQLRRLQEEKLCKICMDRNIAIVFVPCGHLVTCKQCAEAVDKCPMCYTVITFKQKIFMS
Sphingosine 1-phosphate receptor 2, sequence (O95136 whole entry): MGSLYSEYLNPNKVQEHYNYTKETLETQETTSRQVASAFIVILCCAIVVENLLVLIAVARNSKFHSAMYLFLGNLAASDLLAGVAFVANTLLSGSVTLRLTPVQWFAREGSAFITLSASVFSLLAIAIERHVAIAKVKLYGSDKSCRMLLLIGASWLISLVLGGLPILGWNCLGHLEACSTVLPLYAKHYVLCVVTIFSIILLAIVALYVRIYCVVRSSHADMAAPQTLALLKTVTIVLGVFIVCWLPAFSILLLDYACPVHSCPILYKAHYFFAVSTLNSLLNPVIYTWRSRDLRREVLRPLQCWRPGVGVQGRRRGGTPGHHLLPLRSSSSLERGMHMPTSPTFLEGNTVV
Sphingosine 1-phosphate receptor 5, sequence (Q9H228 whole entry): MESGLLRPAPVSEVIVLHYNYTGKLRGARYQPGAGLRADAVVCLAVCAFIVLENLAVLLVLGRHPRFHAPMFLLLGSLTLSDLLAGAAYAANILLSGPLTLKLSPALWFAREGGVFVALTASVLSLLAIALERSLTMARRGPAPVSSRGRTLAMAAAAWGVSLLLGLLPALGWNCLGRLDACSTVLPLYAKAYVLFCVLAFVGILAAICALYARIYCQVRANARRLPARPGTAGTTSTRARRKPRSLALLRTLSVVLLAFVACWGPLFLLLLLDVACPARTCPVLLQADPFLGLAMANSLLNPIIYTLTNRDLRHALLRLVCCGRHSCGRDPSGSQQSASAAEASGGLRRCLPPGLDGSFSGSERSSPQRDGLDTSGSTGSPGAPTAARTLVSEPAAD
Tyrosine-protein phosphatase non-receptor type 12, sequence (Q05209 whole entry): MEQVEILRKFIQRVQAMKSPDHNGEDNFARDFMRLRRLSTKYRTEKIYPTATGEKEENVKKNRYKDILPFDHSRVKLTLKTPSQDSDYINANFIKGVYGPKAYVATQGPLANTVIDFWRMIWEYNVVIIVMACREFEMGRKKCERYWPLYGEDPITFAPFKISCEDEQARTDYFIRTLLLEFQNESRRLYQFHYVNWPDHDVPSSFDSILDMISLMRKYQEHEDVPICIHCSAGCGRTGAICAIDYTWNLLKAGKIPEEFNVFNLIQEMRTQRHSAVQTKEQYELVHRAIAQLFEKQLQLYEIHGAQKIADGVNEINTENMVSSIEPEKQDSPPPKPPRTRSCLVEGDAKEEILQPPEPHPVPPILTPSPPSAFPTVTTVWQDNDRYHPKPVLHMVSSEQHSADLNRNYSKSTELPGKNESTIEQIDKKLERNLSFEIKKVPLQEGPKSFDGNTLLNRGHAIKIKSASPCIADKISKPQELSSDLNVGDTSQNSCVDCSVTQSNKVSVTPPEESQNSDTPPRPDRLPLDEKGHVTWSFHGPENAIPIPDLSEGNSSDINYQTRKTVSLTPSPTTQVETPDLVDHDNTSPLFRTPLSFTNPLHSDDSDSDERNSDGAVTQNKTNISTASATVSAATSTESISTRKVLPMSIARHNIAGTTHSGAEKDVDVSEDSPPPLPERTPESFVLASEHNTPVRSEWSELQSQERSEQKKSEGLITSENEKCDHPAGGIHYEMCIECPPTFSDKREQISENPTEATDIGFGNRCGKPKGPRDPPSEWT
Genome polyprotein, sequence (P29990 2492-3391 limits assumed): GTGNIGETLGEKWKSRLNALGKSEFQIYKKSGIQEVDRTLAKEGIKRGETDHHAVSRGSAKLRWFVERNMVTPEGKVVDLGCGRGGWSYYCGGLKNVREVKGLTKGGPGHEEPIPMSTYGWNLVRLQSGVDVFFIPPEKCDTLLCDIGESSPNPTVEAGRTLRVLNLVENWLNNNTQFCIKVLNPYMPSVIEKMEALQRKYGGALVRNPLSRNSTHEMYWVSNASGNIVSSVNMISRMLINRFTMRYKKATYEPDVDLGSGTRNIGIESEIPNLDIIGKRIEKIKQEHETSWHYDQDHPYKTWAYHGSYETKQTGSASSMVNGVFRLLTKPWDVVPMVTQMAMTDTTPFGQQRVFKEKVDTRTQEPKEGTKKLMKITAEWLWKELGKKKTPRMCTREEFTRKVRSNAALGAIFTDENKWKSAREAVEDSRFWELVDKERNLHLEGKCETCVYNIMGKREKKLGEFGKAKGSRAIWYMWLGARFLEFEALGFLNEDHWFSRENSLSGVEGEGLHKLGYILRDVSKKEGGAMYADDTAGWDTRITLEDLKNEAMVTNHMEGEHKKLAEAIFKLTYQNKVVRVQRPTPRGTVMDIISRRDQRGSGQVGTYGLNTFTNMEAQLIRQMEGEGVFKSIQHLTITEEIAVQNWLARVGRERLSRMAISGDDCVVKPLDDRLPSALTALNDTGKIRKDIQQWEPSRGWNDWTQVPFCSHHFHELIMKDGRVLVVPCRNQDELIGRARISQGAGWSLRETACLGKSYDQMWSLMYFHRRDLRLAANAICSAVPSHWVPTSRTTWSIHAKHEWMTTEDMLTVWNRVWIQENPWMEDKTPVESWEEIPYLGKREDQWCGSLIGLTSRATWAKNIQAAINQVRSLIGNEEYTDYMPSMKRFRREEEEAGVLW
Sphingosine 1-phosphate receptor 3, sequence (Q99500 whole entry): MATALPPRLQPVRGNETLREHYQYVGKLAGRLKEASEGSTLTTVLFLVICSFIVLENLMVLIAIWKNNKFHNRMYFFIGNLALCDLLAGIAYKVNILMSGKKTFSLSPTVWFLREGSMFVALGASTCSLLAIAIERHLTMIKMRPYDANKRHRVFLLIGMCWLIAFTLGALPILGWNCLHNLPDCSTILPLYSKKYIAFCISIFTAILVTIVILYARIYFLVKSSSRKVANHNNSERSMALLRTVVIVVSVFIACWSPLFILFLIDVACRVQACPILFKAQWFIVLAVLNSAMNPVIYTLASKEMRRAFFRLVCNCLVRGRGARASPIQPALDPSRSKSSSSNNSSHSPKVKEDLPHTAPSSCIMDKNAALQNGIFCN

As usually defined, the IC50 is the concentration that inhibits the measured activity by half. In the case of `N#C/C(=C/c1ccc(OCc2cccc(C(=O)O)c2)c(Cl)c1)c1cccc(F)c1`, the IC50 in experiment [1] is > 100 µM (inactive); in experiment [2], 17 µM (active); in experiment [3], > 100 µM (inactive); in [4], 4.78 µM (active); in [5] it was > 100 µM (inactive); in [6], > 100 µM (inactive). The IC50 in experiment [7] is > 100 µM (inactive); in [8] it was 99.1 µM (active).
As usually defined, the EC50 is the concentration needed to bring the measured effect to its halfway point. For the compound `FCc1ccc(OCCOc2ccc(Cl)cc2Cl)c(Cl)n1`, the EC50 in [9], in experiment [10], in [11] and in experiment [12] was > 50 µM (inactive) in each case.
For the compound `Cc1ccc(N2CCN(CCCNC(=O)Cn3c(=O)c4cccn4c4cc(Br)cnc43)CC2)cc1`, the IC50 in experiment [13] was 9.68 µM (active); in experiment [14], 3.86 µM (active).
Usually AC50 stands for the concentration giving half of the maximal activity seen. In the case of `O=C1C=CC(=O)N1N(c1ccccc1)c1ccccc1`, the IC50 is 10.3 µM (active) in [15]; 10.1 µM (active) in experiment [16]; 21.4 µM (active) in experiment [17]; 16.5 µM (active) in [18]; 41.6 µM (active) at Genome polyprotein. Besides, the EC50 in experiment [19] is > 32 µM (inactive); in experiment [20] it was 4.95 µM (active). Further, in experiment [21], the half-maximal activity concentration (AC50) is 4.16 µM (active).
As to `CN[C@@H](C)C(=O)NC1CCCN([C@@H](C)C(=O)Nc2ccc3ccccc3c2)C1=O` (stereo not given in full), the IC50 in experiment [22] and in experiment [23] was > 100 µM (inactive) each time.
On to `CN1CCN(S(=O)(=O)c2ccc(Sc3nc4ccccc4[nH]3)c3nsnc23)CC1`, for which the EC50 in experiment [24] was 7.6 µM (active).
